Results taken from US20120214736A1, “COMPOSITIONS AND METHODS FOR THE MODULATION OF JNK PROTEINS” (Isis Pharmaceuticals, Inc., priority 2006, published 2012).
In the oligonucleotide strings, read from the 5' end, every base follows the letter of its sugar. An asterisk marks phosphorothioate; unmarked linkages are phosphodiester. Other units and linkages are bracketed, terminal groups are in braces. A string of capitals states the bases alone. e = 2'-O-(2-methoxyethyl) (MOE); [5mC] = 5-methylcytosine; d = 2'-deoxy (DNA)

How the values were obtained:
JNK1 mRNA = experiment: Northern assay, JNK1 mRNA expression in A549 cells; type: cell-based, human; details: for response of JNK1 mRNA levels in A549 cells (dose and sequence dependence): 50, 100, 200 and 400 nM; for RNA % Inhibition: 300 nM for initial 20 hours then 200 nM for 4 hours
Method: (§1) In order to evaluate the activity of potential JNK-modulating oligonucleotides, human lung carcinoma cell line A549 (American Type Culture Collection, Rockville, Md. No. ATCC CCL-185) cells or other cell lines as indicated in the Examples, were grown and treated with oligonucleotides or control solutions as detailed below. After harvesting, cellular extracts were prepared and examined for specific JNK mRNA levels or JNK protein levels (i.e., Northern or Western assays, respectively). In all cases, “% expression” refers to the amount of JNK-specific signal in an oligonucleotide-treated cell relative to an untreated cell (or a cell treated with a control solution that lacks oligonucleotide).
(§2) Northern Assays The mRNA expression of each JNK protein was determined by using a nucleic acid probe specifically hybridizable thereto. Nucleic acid probes specific for JNK1, JNK2 and JNK3 are described in Examples 3, 4 and 5, respectively. The probes were radiolabelled by means well known in the art (see, e.g., Short Protocols in Molecular Biology, 2nd Ed., Ausubel et al., Eds., John Wiley & Sons, New York, 1992, pages 3-11 to 2-3-44 and 4-17 to 4-18; Ruth, Chapter 6 In: Methods in Molecular Biology, Vol. 26: Protocols for Oligonucleotide Conjugates, Agrawal, ed., Humana Press Inc., Totowa, N.J., 1994, pages 167-185; and Chapter 10 In: Molecular Cloning: A Laboratory Manual, 2nd Ed., Sambrook et al., Eds., pages 10.1-10.70). The blots were stripped and reprobed with a ^32P-labeled glyceraldehyde 3-phosphate dehydrogenase (G3PDH) probe (Clontech Laboratories, Inc., Palo Alto, Calif.) in order to confirm equal loading of RNA and to allow the levels of JNK transcripts to be normalized with regard to the G3PDH signals.
(§3) A549 cells were grown in T-75 flasks until 80-90% confluent. At this time, the cells were washed twice with 10 mL of media (DMEM), followed by the addition of 5 mL of DMEM containing 20 ┘g/mL of LIPOFECTIN™ (i.e., 1:1 (w/w) DOTMA/DOPE, Life Technologies, Gaithersburg, Md.; DOTMA=N-[1-(2,3-dioleyoxy)propyl]-N,N,N-trimethylammonium chloride; DOPE=dioleoyl phosphatidylethanolamine). The oligonucleotides were added from a 10 μM stock solution to a final concentration of 400 nM, and the two solutions were mixed by swirling the flasks. As a control, cells were treated with LIPOFECTIN™ without oligonucleotide under the same conditions and for the same times as the oligonucleotide-treated samples. After 4 hours at 37° C., the medium was replaced with fresh DMEM containing 10% serum. The cells were allowed to recover for 18 hours. Total cellular RNA was then extracted in guanidinium, subject to gel electrophoresis and transferred to a filter according to techniques known in the art (see, e.g., Chapter 7 In: Molecular Cloning: A Laboratory Manual, 2nd Ed., Sambrook et al., Eds., pages 7.1-7.87, and Short Protocols in Molecular Biology, 2nd Ed., Ausubel et al., Eds., John Wiley & Sons, New York, 1992, pages 2-24 to 2-30 and 4-14 to 4-29). Filters were typically hybridized overnight to a probe specific for the particular JNK gene of interest in hybridization buffer (25 mM KPO4, pH 7.4; 5×SSC; 5×Denhardt's solution, 100 µg/ml Salmon sperm DNA and 50% formamide) (Alahari et al., Nucl. Acids Res., 1993, 21, 4079). This was followed by two washes with 1×SSC, 0.1% SDS and two washes with 0.25×SSC, 0.1% SDS. Hybridizing bands were visualized by exposure to X-OMAT AR film and quantitated using a PHOSPHORIMAGER™ essentially according to the manufacturer's instructions (Molecular Dynamics, Sunnyvale, Calif.).
JNK1-specific probes: In initial screenings of a set of oligonucleotides derived from the JNK1 sequence (Table 2) for biological activity, a cDNA clone of JNK1 (Derijard et al., Cell, 1994, 76, 1025) was radiolabeled and used as a JNK1-specific probe in Northern blots. Alternatively, however, one or more of the oligonucleotides of Table 1 is detectably labeled and used as a JNK1-specific probe. […]

rat JNK1 mRNA = experiment: Northern assay, rat JNK1 mRNA levels in A10 aortic smooth muscle cells; type: cell-based; details: Northern assays
Method: (§4) In order to study the role of JNK proteins in animal models, oligonucleotides targeted to the genes encoding JNK1, JNK2 and JNK3 of Rattus norvegicus were prepared. These oligonucleotides are 2′-methoxyethoxy, phosphodiester/2′-hydroxyl, phosphorothioate/2′-methoxyethoxy, phosphodiester “gapmers” in which every cytosine residue is 5-methylcytosine (m5c). These antisense compounds were synthesized according to the methods of the disclosure. Certain of these oligonucleotides are additionally specifically hybridizable to JNK genes from other species as indicated herein. The oligonucleotides described in this Example were tested for their ability to modulate rat JNK mRNA levels essentially according to the methods described in the preceding Examples, with the exceptions that the cell line used was rat A10 aortic smooth muscle cells (ATCC No. ATCC CRL-1476) and the probes used were specific for rat JNK1, JNK2 or JNK3 (see infra). A10 cells were grown and treated with oligonucleotides essentially as described by (Cioffi et al. Mol. Pharmacol., 1997, 51, 383).
(§5) These antisense compounds were tested for their ability to modulate levels of (JNK1) and (JNK2) mRNA in A10 cells via Northern assays. Due to the high degree of sequence identity between the human and rat genes, radiolabeled human JNK1 (Example 3) and JNK2 (Example 4) cDNAs functioned as specific probes for the rat homologs. […]

human JNK2 mRNA = experiment: Northern analysis, human JNK2 mRNA in Jurkat cells (electroporation, dose response); type: cell-based; details: Jurkat cells
Method: Jurkat cells were routinely cultured in RPMI Medium 1640 (Gibco/Life Technologies, Gaithersburg, Md.) supplemented with 20% fetal calf serum (Gibco/Life Technologies, Gaithersburg, Md.). Cells were routinely passaged by aspirating media that contained excess cells and replenishing with new media.
For electroporation, cells were diluted to 28×10^6 cells/mL and placed into 1 mm electroporation cuvettes. Electroporation is performed by treating with 1-20 μM oligonucleotide, at 160 Volts for 6 msec. The entire electroporated samples are then placed into 5 mL of 10% FBS/RPMI Medium 1640 in 100 mm plates. Plates are then left overnight at 37° C./5% CO2.
Each sample is then transferred to 15 mL conical tubes and spun down at 1200 rpm for 5 minutes followed by aspiration of the supernatant. Cells are then suspended in 5 mL PBS followed by a second centrifugation at 1200 rpm for 5 minutes followed by aspiration of the supernatant. Cells are then washed and lysed. Following the lysis step, total cellular RNA is then isolated using the RNEASY kit (Qiagen, Santa Clarita, Calif.) as described in other examples herein.
In accordance with the present invention, Jurkat cells were treated by electroporation with 1, 5 or 20 uM ISIS 101759 or the control oligonucleotide and mRNA levels of human JNK2 were quantitated by Northern analysis.

JNK2 mRNA = experiment: Northern assay, JNK2 mRNA expression in A549 cells; type: cell-based, human; details: for response of JNK2 mRNA levels in A549 cells (dose and sequence dependence): 50, 100, 200 and 400 nM
Method: as §1, §2
as §3, with “This was followed by two washes with 1×SSC, 0.1% SDS and two washes with 0.25×SSC, 0.1% SDS.” left out, “Calif.). […]” for “Calif.).”

[1] = test system: TNFa-induced JNK activity; experiment: TNFa-induced JNK activity in HUVEC (GST-c-Jun phosphorylation); type: cell-based, human; details: 100 nM, 5 ng/ml TNFa 15 minutes, compared to a control oligonucleotide
Method: Human umbilical vein endothelial cells (HUVEC, Clonetics, San Diego Calif.) were incubated with oligonucleotide with LipofectinJ in Opti-MEMJ for 4 hours at 37° C./5% CO2. The medium was then replaced with 1% FBS/EGM (Clonetics, Walkersville Md.) and incubated for 24 hours at 37° C./5% CO2. Cells were treated with 5 ng/ml TNFa for 15 minutes before lysis. JNK activity was determined by incubating lysates (normalized for protein) with immobilized GST-c-Jun fusion protein (e.g., New England Biolabs, Beverly, Mass.)+^32P-ATP. GST-c-Jun beads were washed and SDS-PAGE sample buffer was added. Samples were resolved by SDS-PAGE and phosphorylated c-Jun was visualized using a Molecular Dynamics PhosphorImager.

rat JNK2 mRNA = experiment: Northern assay, rat JNK2 (p54a) mRNA levels in A10 aortic smooth muscle cells; type: cell-based; details: Northern assays
Method: as §4, §5

Substance: 14320 (sense CCAAGCGGGCCTACAGAGAG; DNA, all phosphorothioate, methylation of C not given here) [compound 14320]
- response of JNK1 mRNA levels in A549 cells (dose and sequence dependence) (JNK1 mRNA): neither of the control oligonucleotides effect any consistent response

Substance: 21859 (antisense e[5mC]eTe[5mC]eAeT*dG*dA*dT*dG*dG*d[5mC]*dA*dA*dG*d[5mC]*eAeAeTeTeA) [compound 21859]
- specific modulation of mRNA encoding JNK1 (dose response) (rat JNK1 mRNA): specifically modulates levels of mRNA encoding JNK1 and JNK2, respectively

Substance: 14321 (CTTTCCGTTGGACCCCTGGG; DNA, all phosphorothioate, methylation of C not given here) [compound 14321]
- response of JNK1 mRNA levels in A549 cells (dose and sequence dependence) (JNK1 mRNA): neither of the control oligonucleotides effect any consistent response

Substance: 101759 (antisense GCTCAGTGGACATGGATGAG; sugars from the 5' end e5 d10 e5, all phosphorothioate, methylation of C not given here) [compound 101759]
- Percent Inhibition of human JNK2 mRNA (human JNK2 mRNA; 1 uM): 14%
- Percent Inhibition of human JNK2 mRNA (human JNK2 mRNA; 5 uM): 56%
- Percent Inhibition of human JNK2 mRNA (human JNK2 mRNA; 20 uM): 92%

Substance: 15346 (antisense CTCTCTGTAGGCCCGCTTGG; gapmer: P=S, 2'-MOE wings, 2'-deoxy core, chemistry not fully specified) [compound 15346]
- RNA % Inhibition (JNK1 mRNA; t = 48 h): 95.7%
- RNA % Inhibition (JNK1 mRNA; t = 72 h): 89.4%

Substance: 12539 (antisense CTCTCTGTAGGCCCGCTTGG; DNA, all phosphorothioate, methylation of C not given here) [compound 12539]
- response of JNK1 mRNA levels in A549 cells (dose and sequence dependence) (JNK1 mRNA): dependent on dose in an approximately linear fashion
- RNA % Inhibition (JNK1 mRNA; t = 48 h): 93.3%
- RNA % Inhibition (JNK1 mRNA; t = 72 h): 88.3%
- response of JNK2 mRNA levels in A549 cells (dose and sequence dependence) (JNK2 mRNA): dependent on dose in an approximately linear fashion

Substance: 14319 (dG*dT*dG*dC*dG*dC*dG*dC*dG*dA*dG*dC*dC*dC*dG*dA*dA*dA*dT*dC) [compound 14319]
- response of JNK2 mRNA levels in A549 cells (dose and sequence dependence) (JNK2 mRNA): neither of the control oligonucleotides effect any consistent response

Substance: 12560 (antisense dG*dT*dC*dC*dG*dG*dG*dC*dC*dA*dG*dG*dC*dC*dA*dA*dA*dG*dT*dC) [compound 12560]
- level of inhibition of JNK2 (JNK2 mRNA; for at least about 12 hours following the 4 hour treatment): greater than or equal to 80%
- level of inhibition of JNK2 (JNK2 mRNA; up to at least about t=48 h): greater than or equal to 60%

Substance: 15353 (antisense GTCCGGGCCAGGCCAAAGTC; P=S gapmer, 2'-MOE wings, chemistry not fully specified) [compound 15353]
- inhibition of TNFa-induced JNK activity [1]: approximately 55%

Substance: 18259 (antisense eGe[5mC]eTe[5mC]eA*dG*dT*dG*dG*dA*d[5mC]*dA*dT*dG*dG*eAeTeGeAeG) [compound 18259]
- specific modulation of mRNA encoding JNK2 (dose response) (rat JNK2 mRNA): specifically modulates levels of mRNA encoding JNK1 and JNK2, respectively

Substance: 14318 (sense dG*dA*dC*dT*dT*dT*dG*dG*dC*dC*dT*dG*dG*dC*dC*dC*dG*dG*dA*dC) [compound 14318]
- response of JNK2 mRNA levels in A549 cells (dose and sequence dependence) (JNK2 mRNA): neither of the control oligonucleotides effect any consistent response
